Assay results from article PMC7696216, “Bi-Functional Alginate Oligosaccharide–Polymyxin Conjugates for Improved Treatment of Multidrug-Resistant Gram-Negative Bacterial Infections” (Pharmaceutics, 2020).
Read-outs that look alike come from different tables or passages of the source. Positions of bridges follow the written chain, without caps; N, C: chain ends. Non-standard residues stand in square brackets, D forms with d. Residues, ends and D or L forms follow the SMILES beside them. *: point of attachment. X1 = CC[C@H](C)CCCCC(=O)*; Dab = NCC[C@H](N)C(=O)O

Tests used:
P. aeruginosa R22 = type: cell-based, Pseudomonas aeruginosa; conditions: for MIC: resazurin read-out
Description: (§1) The minimum inhibitory concentration (MIC) of colistin (as sulphate salt) and polymyxin B and their conjugates was determined using the broth microdilution method in MH broth in accordance with standard guidelines. Test organisms were suspended in MH broth (100 µL, 5 × 10^5 colony forming units (CFU)/mL) and incubated in 96-well microtitre plates in serial two-fold dilutions of the test compounds. […] Results were expressed as mode (n = 3). […] Selective activities of the polymyxins and OligoG–polymyxin conjugates were calculated as follows:Selectivity index (SI) = IC50 (μg/mL)/MIC (μg/mL).
(§2) To account for turbidity caused by mucin, resazurin dye solution (30 µL, 0.01% w/v in dH2O) was added to each well and incubated for a further 3 h at 37 °C. Colour changes were observed and recorded.

P. aeruginosa MDR 301 = type: cell-based, Pseudomonas aeruginosa
Description: as §1
(§3) In addition, alginate oligomer–colistin conjugates (3 mg/mL) were incubated in PBS at pH 7 containing bacterial alginate lyase (1 and 10 U/mL) at 37 °C for 24 h, before preparing microtitre plates as described above.
(§4) To study the antimicrobial efficacy of test compounds under more clinically relevant conditions, the MIC protocol was performed using AS medium instead of MH broth. The plates were incubated with resazurin as described above.

P. aeruginosa NH57388A = experiment: MIC, broth microdilution; type: cell-based, Pseudomonas aeruginosa
Description: as §1, §4

P. aeruginosa NCTC 10662 = type: cell-based, Pseudomonas aeruginosa; conditions: SI = IC50 (µg/mL, HK-2)/MIC (µg/mL)
Description: as §1

K. pneumoniae KP05 506 = type: cell-based, Klebsiella pneumoniae
Description: as §1, §3, §4

K. pneumoniae IR25 = type: cell-based, Klebsiella pneumoniae; conditions: for MIC: resazurin read-out
Description: as §1, §2

A. baumannii MDR ACB = type: cell-based, Acinetobacter baumannii; conditions: for MIC: resazurin read-out
Description: as §1, §2

A. baumannii 7789 = type: cell-based, Acinetobacter baumannii
Description: as §1, §3, §4

E. coli AIM-1 = experiment: MIC, broth microdilution; type: cell-based, Escherichia coli; conditions: broth microdilution, MH broth, 5 × 10^5 CFU/mL, 16–20 h, mode (n = 3)
Description: as §1, §3

E. coli IR57 = type: cell-based, Escherichia coli
Description: as §1, §2, §4

E. coli 5702 = experiment: MIC, broth microdilution; type: cell-based, Escherichia coli
Description: as §1, §4

E. coli NCTC 10418 = type: cell-based, Escherichia coli; conditions: SI = IC50 (µg/mL, HK-2)/MIC (µg/mL)
Description: as §1

E. coli PN21 = experiment: MIC, broth microdilution; type: cell-based, Escherichia coli; conditions: SI = IC50 (µg/mL, HK-2)/MIC (µg/mL)
Description: as §1

[1] = test system: range of Gram-negative bacterial pathogens; experiment: MIC and selectivity index across the panel of isolates; type: cell-based; conditions: mean SI over the isolates of Table S4
Description: as §1

MTT cytotoxicity assay = type: cell-based; conditions: human, HK-2 cells, 72 h incubation, 0–1 mg/mL polymyxin base, ±SEM (n = 18), read-out: Half maximal inhibitory concentration (IC50), cytotoxicity
Description: A 3-(4,5-dimethylthiazol-2-yl)-2,5-diphenyltetrazolium bromide (MTT) assay was used to measure cell viability and proliferation of HK-2 cells. Cells were seeded into sterile 96-well microtitre plates at 1 × 10^5 cells/mL (100 µL/well) and allowed to adhere for 24 h at 37 °C. The following day, the old medium was replaced with test compounds (0–1 mg/mL polymyxin base) dissolved in filter-sterilised K-SFM. After 67 h incubation at 37 °C, filter-sterilised MTT solution (20 µL of a 5 mg/mL solution in PBS) was added to each well and incubated for a further 5 h at 37 °C. Finally, the medium was carefully removed, and the formazan crystals were solubilised in DMSO (100 µL) for 30 min. Absorbance was measured at 550 nm using a Fluostar Omega microplate reader. […] Data are expressed as mean ± SEM (n = 18).

[2] = cited from earlier work
Description: In a clinical setting, binding of colistin to sputum biomolecules (e.g., mucin) in the airways could negatively impact antibiotic effectiveness and availability. […] A four-fold increase in the MIC of colistin was also reported when the assay was conducted in AS medium instead of MH broth, thought to be caused by bacterial growth disruption, structural modifications of lipopolysaccharides or direct colistin–mucin interactions. Alt ...

[3] = MH broth + porcine stomach (type II) mucin 0.2% w/v
[4] = MH broth + porcine stomach (type II) mucin 2% w/v
[5] = AS (artificial sputum) medium, resazurin read-out
[6] = MH broth (Table S7 comparison with AS medium)

Compound `CC[C@H](C)CCCCC(=O)N[C@@H](CCN)C(=O)N[C@H](C(=O)N[C@@H](CCN)C(=O)N[C@H]1CCNC(=O)[C@H]([C@@H](C)O)NC(=O)[C@H](CCN)NC(=O)[C@H](CCN)NC(=O)[C@H](CC(C)C)NC(=O)[C@@H](Cc2ccccc2)NC(=O)[C@H](CCN)NC1=O)[C@@H](C)O` [Polymyxin B, polymyxin B] (X1-[Dab]T[Dab][Dab][Dab][dF]L[Dab][Dab]T; lactam 4-C (inferred); N-terminus assumed) has an MIC (P. aeruginosa R22; [3]) of 4 μg/mL Drug Base, an MIC (P. aeruginosa R22; [4]) of 64 μg/mL Drug Base and an MIC (P. aeruginosa R22; MH broth, mucin 0%) of 0.25 μg/mL Drug Base. For the same compound, the “Selectivity index (SI) value” (P. aeruginosa R22; SI = IC50 (µg/mL, HK-2)/MIC (µg/mL), P. aeruginosa R22) was 44, the MIC (P. aeruginosa MDR 301; [5]) was 4 μg/mL Drug Base and the MIC (P. aeruginosa MDR 301; [6]) was 0.5 μg/mL Drug Base. The “Selectivity index (SI) value” (P. aeruginosa MDR 301; SI = IC50 (µg/mL, HK-2)/MIC (µg/mL), P. aeruginosa MDR 301) was 22, the MIC (P. aeruginosa NH57388A; [5]) was 1 μg/mL Drug Base and the MIC (P. aeruginosa NH57388A; [6]) was 0.25 μg/mL Drug Base. The “Selectivity index (SI) value” (P. aeruginosa NH57388A; SI = IC50 (µg/mL, HK-2)/MIC (µg/mL), P. aeruginosa NH57388A) was 44, the “Selectivity index (SI) value” (P. aeruginosa NCTC 10662) was 175 and the MIC (K. pneumoniae KP05 506; [5]) was 1 μg/mL Drug Base. The MIC (K. pneumoniae KP05 506; [6]) was 0.125 μg/mL Drug Base, the “Selectivity index (SI) value” (K. pneumoniae KP05 506; SI = IC50 (µg/mL, HK-2)/MIC (µg/mL), K. pneumoniae KP05 506) was 88 and the MIC (K. pneumoniae IR25; [3]) was 4 μg/mL Drug Base. For the same compound, the MIC (K. pneumoniae IR25; [4]) was 64 μg/mL Drug Base, the MIC (K. pneumoniae IR25; MH broth, mucin 0%) was 0.125 μg/mL Drug Base and the “Selectivity index (SI) value” (K. pneumoniae IR25; SI = IC50 (µg/mL, HK-2)/MIC (µg/mL), K. pneumoniae IR25) was 88. The MIC (A. baumannii MDR ACB; [3]) was 1 μg/mL Drug Base, the MIC (A. baumannii MDR ACB; [4]) was 16 μg/mL Drug Base and the MIC (A. baumannii MDR ACB; MH broth, mucin 0%) was 0.125 μg/mL Drug Base. For the same compound, the “Selectivity index (SI) value” (A. baumannii MDR ACB; SI = IC50 (µg/mL, HK-2)/MIC (µg/mL), A. baumannii MDR ACB) was 88, the MIC (A. baumannii 7789; [5]) was 0.5 μg/mL Drug Base and the MIC (A. baumannii 7789; [6]) was 0.125 μg/mL Drug Base. For the same compound, the “Selectivity index (SI) value” (A. baumannii 7789; SI = IC50 (µg/mL, HK-2)/MIC (µg/mL), A. baumannii 7789) was 88, the MIC (E. coli AIM-1) was less than 0.004 μg/mL Drug Base and the MIC (E. coli IR57; [5]) was 0.125 μg/mL Drug Base. For the same compound, the MIC (E. coli IR57; [6]) was 0.5 μg/mL Drug Base, the MIC (E. coli IR57; MH broth + porcine stomach (type II) mucin 0.2% w/v, resazurin read-out) was 1 μg/mL Drug Base and the MIC (E. coli IR57; MH broth + porcine stomach (type II) mucin 2% w/v, resazurin read-out) was 4 μg/mL Drug Base. For the same compound, the MIC (E. coli IR57; MH broth, mucin 0%, resazurin read-out) was 0.5 μg/mL Drug Base, the MIC (E. coli 5702; [5]) was 0.25 μg/mL Drug Base and the MIC (E. coli 5702; [6]) was 0.063 μg/mL Drug Base. For the same compound, the “Selectivity index (SI) value” (E. coli NCTC 10418) was 1, the “Selectivity index (SI) value” (E. coli PN21) was 3 and the “Selectivity index (SI) value, Mean” value [1] was 66. The IC50 at 72 h (MTT cytotoxicity assay) was 11 µg/mL and the “increase in MIC values when mucin was added to the bacterial culture medium” value [2] was greater than 100 fold.
